{"source": "patent US8003327B2", "about": "“Methods of screening for risk of proliferative disease and methods for the treatment of proliferative disease” (Duke University, priority 1998, dated 2011)", "key": {"[1]": {"tested_on": "NT2 cells", "experiment": "Dose response of NT2 cell viability to drugs, trypan blue method", "format": "cell-based", "conditions": "for IC50: Homo sapiens, 18 hours, trypan blue, read-out: dose resulting in 50% killing at 18 hours", "method": "Drug treatments: Dose response curves were established for etoposide, vincristine and staurosporine in NT2 cells (FIGS. 3Ai, 3Bi and 3Ci). […] Survival represents the number of drug treated viable cells divided by the number of untreated viable cells and expressed as a percentage. Protection is calculated as the difference in survival between CLN3-overexpressing cells and the vector-transfected control cells. The degree of protection is calculated as the difference in survival between treated CLN3-overexpressing and vector control cells divided by the survival of treated vector control cells. The values are from three separate experiments, each of which was carried out in triplicate (FIGS. 3Aii, 3Bii, and 3Cii)."}, "[2]": {"tested_on": "NT2 cells", "experiment": "DNA fragmentation (low molecular weight DNA ladder) in NT2 cells", "format": "cell-based", "method": "FIG. 4. […] NT2 cells were transiently transfected with CLN3 (lanes 1, 3 and 5) or vector alone (lanes 2, 4 and 6) followed by treatment with either 10 μg/ml etoposide (lanes 1 and 2) or 500 nM staurosporine (lanes 3 and 4) or 1 μg/ml vincristine (lanes 5 and 6). Low molecular weight DNA was extracted and analyzed on a 2% agarose gel in Tris-Borate-EDTA buffer (Rosenbaum et al, Ann. Neurol. 36, 864-870 (1994)).\nA hallmark of apoptosis is the fragmentation of nuclear DNA into nucleosome-sized fragments creating a DNA ladder of 180 bp and its concatamers (Arends M J, et al., Am. J. Pathol. 136: 593-608 (1990)). […] NT2 cells were transiently transfected with CLN3 or vector alone, then treated with the drugs prior to the extraction of low molecular weight DNA (Rosenbaum D M, et al., Ann. Neurol. 36: 864-870 (1994))."}}}
{"smiles": "CCCCCCCCCCCCC/C=C/[C@@H](O)[C@H](CO)NC(C)=O", "note": "[C2-ceramide]", "values": [{"measurement": "apoptosis induction in NT2 cells", "setting": "[1]; increasing concentrations, counted at 6, 12, 18 and 24 hour", "result": "effective apoptotic agent"}]}
{"smiles": "COc1cc([C@@H]2c3cc4c(cc3[C@@H](O[C@@H]3O[C@@H]5CO[C@@H](C)O[C@H]5[C@H](O)[C@H]3O)[C@H]3COC(=O)[C@H]23)OCO4)cc(OC)c1O", "note": "[etoposide]", "values": [{"measurement": "IC50", "setting": "[1]; NT2 cells", "result": 10, "unit": "µg/mL"}, {"measurement": "DNA fragmentation in NT2 cells caused by drug", "setting": "[2]", "result": "cause DNA fragmentation"}]}
{"smiles": "CN[C@@H]1C[C@H]2O[C@@](C)([C@@H]1OC)n1c3ccccc3c3c4c(c5c6ccccc6n2c5c31)C(=O)NC4", "note": "[staurosporine]", "values": [{"measurement": "optimal concentration for causing apoptosis in NT2 cells", "setting": "[1]; NT2 cells, dose response curves", "result": 500, "unit": "nM"}, {"measurement": "DNA fragmentation in NT2 cells caused by drug", "setting": "[2]", "result": "cause DNA fragmentation"}]}
{"smiles": "CC[C@]1(O)C[C@H]2CN(CCc3c([nH]c4ccccc34)[C@@](C(=O)OC)(c3cc4c(cc3OC)N(C=O)[C@H]3[C@@](O)(C(=O)OC)[C@H](OC(C)=O)[C@]5(CC)C=CCN6CC[C@]43[C@@H]65)C2)C1", "note": "[vincristine]", "values": [{"measurement": "IC50", "setting": "[1]; NT2 cells", "result": 1, "unit": "µg/mL"}, {"measurement": "DNA fragmentation in NT2 cells caused by drug", "setting": "[2]", "result": "cause DNA fragmentation"}]}
